From PMC7142304, “Oxadiazole-Containing Macrocyclic Peptides Potentiate Azole Activity against Pathogenic Candida Species” (mSphere, 2020)
≈ marks a conversion by molar mass, not a printed value.

What was measured:
[1] = system: C. glabrata, C. auris, C. tropicalis, and C. parapsilosis; assay: Fluconazole MIC against azole-resistant non-albicans Candida panel; type: cell-based, Candida species; conditions: in the absence of macrocyclic peptides; range over the four strains; YPD, 30°C
Procedure: (D) Fluconazole dose-response assays for diverse Candida species were conducted in YPD medium without (−) or with the indicated macrocycle (62.5 μM). Growth was measured by absorbance at 600 nm after 24 h (C. parapsilosis [CpLC573], C. auris [Ci 6684, CauLC5083], and C. glabrata [BG2, CgLC1002]) or after 48 h (C. tropicalis [CtLC573]) at 30°C. Optical densities were averaged for duplicate measurements and normalized relative to the no-drug control well for each strain.
To evaluate the activity of the oxadiazole-containing macrocyclic peptides against other fungal pathogens, we tested a panel of azole-resistant non-albicans Candida species, including C. glabrata, C. auris, C. tropicalis, and C. parapsilosis. Dose-response assays were conducted using standard protocols ([14]) with a 2-fold dilution series of fluconazole, without or with JRF1197-2, JRF1198-2, or JRF1199-2 at 62.5 μM, a concentration that enhanced azole activity against C. albicans (Fig. 1).

[2] = system: ABC transporters Cdr1 and Cdr2; assay: Rhodamine-6G intracellular accumulation (efflux inhibition); type: cell-based; conditions: 30°C
Procedure: (A) The effect of JRF1199-1 and JRF1199-2 on filamentation of C. albicans (SN95, CaLC239) was monitored after incubation in YPD medium at 30°C or 39°C for 4 h with shaking. Images were taken by differential interference contrast microscopy. Representative fields from micrographs obtained at the same magnification for all images are presented. (B) C. albicans (Caf2-1, CaLC2742) was grown in YPD medium at 30°C for 3 h with or without 125 μM macrocycle or 10 μg/ml of beauvericin. A concentration of 1 μg/ml of rhodamine-6G was added to the cultures for another 30 min at 30°C. Cells were washed twice with phosphate-buffered saline (PBS), followed by fluorescence microscopy to monitor rhodamine-6G accumulation in cells. (C) The fluorescence of untreated cells or of cells treated with beauvericin or JRF1198-2 was quantitated by flow cytometry. Assays were performed using 250 μl of culture per well, and fluorescence was measured using the FL2 (phycoerythrin) channel in a CytoFLEX flow cytometer (Beckman Coulter Inc.) with at least 20,000 events acquired per sample. Events were gated to capture at least 90% of the entire population analyzed, discarding clumps/cellular debris. […] Growth was measured by absorbance at 600 nm after 24 h (C. parapsilosis [CpLC573], C. auris [Ci 6684, CauLC5083], and C. glabrata [BG2, CgLC1002]) or after 48 h (C. tropicalis [CtLC573]) at 30°C. […]

Row | Molecule | MIC [1] [µg/mL] | Mean Fluorescence (rhodamine-6G accumulation) ([2]; flow cytometry, FL2 channel, 3 h with 125 μM macrocycle or 10 μg/ml beauvericin, then 1 μg/ml rhodamine-6G for 30 min, at least 20,000 events) | Effect on rhodamine-6G accumulation ([2]; microscopy and flow cytometry, 125 μM macrocycle or 10 μg/ml beauvericin, YPD)
1 | OC(Cn1cncn1)(Cn1cncn1)c1ccc(F)cc1F [fluconazole] | 32 to 256 (≈ 104 to 836 µM) |  | 
2 | beauvericin |  | 275895.3 | enhanced rhodamine-6G accumulation
